Results as given in patent publication US9557319B2, “Cell-based arrays, methods of making, and methods of using” (University of Florida Research Foundation, Inc., priority 2010, dated 2017).

Test system: HCT116 cells
Assay: HCT116 cell number (Hoechst nuclear stain) on drug-loaded microarray
Type: cell-based, human
Conditions: after 72 h
From the text: The following figures (FIGS. 5.1 to 5.4) are micrographs taken from drug-eluting cellular microarrays, manufactured as described herein. The images are taken from individual cellular islands from the same array under various drug-loading conditions over a period of three days. HCT116 cells are nuclear stained with Hoechst for easy visibility. […] The water phase for this experiment was loaded with azide at various concentrations in addition to a control with no drug loaded. Azide is a useful probe reagent, mutagen, and preservative. Azide inhibits cytochrome oxidase by binding irreversibly to the heme cofactor in a process similar to the action of carbon monoxide. As such, it is expected to induce necrosis in cells at physiologically relevant doses.
To establish microarray fidelity, microarrays were manufactured as described above. HCT116 cells were then seeded over microarrays and incubated for 24 or 72 h. Microarrays were fixed in 4% paraformaldehyde and stained with Hoechst 34580 dye.
Camptothecin-loaded microarrays were stained with Annexin V (BD Pharminigen), fixed in 4% paraformaldehyde, and placed in PBS with Hoechst dye 34580 (Invitrogen, USA) for 30 min. Azide-loaded microarrays were fixed with 4% paraformaldehyde and incubated with PBS containing Hoechst 34580 dye. Finally, nutlin-3a-loaded microarrays were fixed with 4% paraformaldehyde, stained with BrdU (BD Bioscience, San Jose, Calif.), and incubated in PBS containing Hoechst 34580 dye. All arrays were mounted with Fluoro-Gel (Electron Microscope Sciences, Hatfield, Pa.) and imaged using an Axiovert 200M microscope (Carl Zeiss, Oberkochen, Germany). Analysis was performed with Axiovision (Carl Zeiss, Oberkochen, Germany) by quantifying, in each drug-eluting island, the area of fluorescence and reported as relative fluorescence intensity (RFI).

## COc1ccc(C2=N[C@@H](c3ccc(Cl)cc3)[C@@H](c3ccc(Cl)cc3)N2C(=O)N2CCNC(=O)C2)c(OC(C)C)c1 [Nutlin-3a]
  HCT116 cell numbers vs drug loading concentration: decreased with increasing loading concentrations
